The values below come from patent publication EP2095819A1, “N-benzyl imidazole derivatives and their use as aldosterone synthase inhibitors” (Maastricht University, priority 2008, dated 2009).

pIC50: −log10 of the molar value.

Assay [1] deals with T1, human CYP11B2 (Homo sapiens, UniProt P19099).
T1 construct: expressed in transfected cells; host or cells: V79 Chinese hamster cells
T1 sequence (P19099 25-503): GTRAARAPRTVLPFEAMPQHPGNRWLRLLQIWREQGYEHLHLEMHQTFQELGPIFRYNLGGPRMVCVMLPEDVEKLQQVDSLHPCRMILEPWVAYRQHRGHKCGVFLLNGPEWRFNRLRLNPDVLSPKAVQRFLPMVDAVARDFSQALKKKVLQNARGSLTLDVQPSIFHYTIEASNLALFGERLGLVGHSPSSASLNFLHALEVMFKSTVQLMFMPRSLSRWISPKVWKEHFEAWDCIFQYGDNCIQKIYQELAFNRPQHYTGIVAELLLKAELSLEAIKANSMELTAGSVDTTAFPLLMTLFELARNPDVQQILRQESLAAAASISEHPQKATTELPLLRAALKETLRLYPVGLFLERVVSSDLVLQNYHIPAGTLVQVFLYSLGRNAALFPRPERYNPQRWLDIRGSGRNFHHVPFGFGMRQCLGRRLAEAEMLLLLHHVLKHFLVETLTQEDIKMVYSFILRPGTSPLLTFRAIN
As to the kind of experiment: Inhibitor potency for human CYP11B2 in V79 cells expressing the enzyme (HPLC steroid analysis). Particulars: for Ratio: Ratio = IC50 CYP11B1/ IC50 CYP11B2 (selectivity); for pIC50: V79 cells stably (over)expressing human CYP11B2, 1 hour with inhibitor, then 11-deoxycorticosterone 500 nM for three hours, read-out: IC50 11B2. It counts as cell-based. The procedure:
(§1) Inhibitor potencies for human CYP11B1 and CYP11B2 were determined in an in vitro assay using V79 cells in which human CYP11B1 or CYP11B2 are expressed.
The V79 cells stably (over)expressing human CYP11 B2 were developed in the laboratory of Prof. Rita Bernhardt, Institute of Biochemistry, Saarland University, Saarbrücken, Germany : • Denner K, Doehmer J,Bernhardt R. "Cloning of CYP11B1 and CYP11B2 from normal human adrenal and their functional expression in COS-7 and V79 Chinese hamster cells" Endocr Res 1995;21:443-8; • Bottner B, Denner K, Bernhardt R "Conferring aldosterone synthesis to human CYP11B1 by replacing key amino acid residues with CYP11B2 ones", Eur. J. Biochem. 1998; 252: 458-466; • Denner K, Vogel R, Schmalix W, Doehmer J, Bernhardt R.: "Cloning and stable expression of the human mitochondrial cytochrome P45011B1 cDNA in V79 Chinese hamster cells and their application for testing of potential inhibitors." Pharmacogenetics 1995; 5: 89-96; • Denner K, Bernhardt R. "Inhibition studies of steroid conversions mediated by human CYP11B1 and CYP11B2 expressed in cell cultures". In: Oxygen Homeostasis and Its Dynamics. Springer-Verlag, Tokyo, Berlin, Heidelberg, New York 1998, pp 231-236; • Ehmer PB, Bureik M, Bernhardt R, Muller U, Hartmann RW. "Development of a test system for inhibitors of human aldosterone synthase (CYP11B2): screening in fission yeast and evaluation of selectivity in V79 cells." J. Steroid Biochem Mol Biol. 2002; 81: 173-179.
(§2) Cells were cultured under standard conditions in DMEM/FK12 medium (Gibco, Gaitersburg, USA) supplemented with 10% foetal calf serum (Hyclone, Logan, USA), penicillin/streptomycin (100 U/ml and 100 µg/ml, respectively Gibco). Cell culturing and incubation experiments (see below) with the cells were performed at 37°C in a humid environment and 5%CO2 atmosphere.
(§3) Next, cells were incubated for 1 hour in serum free medium with cumulative inhibitor concentrations. […] After these incubation times, medium was collected for steroid analysis by HPLC. To extract the (produced) steroids from the medium, 1 ml aliquots of medium were mixed with 1 ml 1 M sodium-glycine buffer (pH 10.5) containing 500 nM methylprednisolone (Sigma-Aldrich) as internal standard and 5 ml of diethylether (Biosolve, Valkenswaard, the Netherlands). After shaking for 3 minutes, the samples were briefly centrifuged and the organic phase (containing the steroids) transferred into another tube and blown to dryness under a stream of nitrogen. The dried extracts were dissolved in 100 µl of mobile phase to be used for automated HPLC analysis. The HPLC system comprised a MR column (4.6 x 50 mm, particle size 2.5 µm; Shimadzu, Tokyo, Japan) as a stationary phase and a mixture of 680/320/1 (v/v/v) milliQ water, acetonitrile and trifluoro-acetic acid as mobile phase at a flow rate of 1.0 ml/minute. Steroids were detected by UV absorption at 243 nm (Shimadzu, Tokyo, Japan). To quantitate the steroids, peak area ratios versus the internal standard (methylprednisolone) were determined and compared with calibration curves.
(§4) Determination of IC50 values (potencies) was based on at least 5 inhibitor concentrations and was derived from the generic equation for enzyme inhibition at fixed substrate concentration vi = v0/(1 + I/IC50) with vi and v0 being the reaction velocities in the presence or absence of inhibitor respectively, and I being the inhibitor concentration (Cornish-Bowden A, "Analysis of enzyme kinetic data.", Oxford University Press, Oxford, 1995). All analyses were conducted at least in duplicate. […]

Assay [2] has as its target T2, human CYP11B1 (Homo sapiens, UniProt P15538).
T2 construct: The full length cDNA for human CYP11B1 was obtained by PCR from human adrenal cDNA; expressed in transfected cells; host or cells: V79 Chinese hamster cells, stably transfected with pcDNA3.1 (hygromycin resistance)
T2 sequence (P15538 25-503): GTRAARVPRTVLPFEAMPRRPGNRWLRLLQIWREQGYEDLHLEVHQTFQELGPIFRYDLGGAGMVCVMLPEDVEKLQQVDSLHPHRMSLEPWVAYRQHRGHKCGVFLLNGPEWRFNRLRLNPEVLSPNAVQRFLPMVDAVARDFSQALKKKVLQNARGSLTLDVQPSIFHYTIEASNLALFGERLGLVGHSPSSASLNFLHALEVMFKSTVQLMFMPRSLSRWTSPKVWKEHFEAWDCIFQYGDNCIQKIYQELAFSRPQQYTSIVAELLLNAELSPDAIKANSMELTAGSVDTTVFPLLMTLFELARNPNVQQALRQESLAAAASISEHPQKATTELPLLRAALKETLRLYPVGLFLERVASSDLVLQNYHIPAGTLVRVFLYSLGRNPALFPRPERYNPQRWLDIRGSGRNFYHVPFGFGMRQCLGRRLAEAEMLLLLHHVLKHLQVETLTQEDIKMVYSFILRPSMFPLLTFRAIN
The assay is described as follows: Inhibitor potency for human CYP11B1 in V79 cells expressing the enzyme (HPLC steroid analysis). It is filed as cell-based. The note with it: V79 cells (over)expressing human CYP11B1; 1 hour with inhibitor, then 11-deoxycorticosterone 500 nM for another hour; read-out: IC50 11B1. The procedure: as §1
The human CYP11B1 (over)expressing V79 cells (stably transfected with a pcDNA3.1 vector, carrying a hygromycin resistance box) were constructed at Organon (Newhouse, UK) in the following manner. The full length cDNA for human CYP11B1 was obtained by PCR from human adrenal cDNA as described by Kawamoto et al ("Cloning of cDNA and genomic DNA for human cytochrome P-45011 beta" FEBS Lett 1990;269:345-9) and cloned into pPCR SCRIPT (Stratagene, La Jolla, USA). After digestion with Xho I and Not I, the obtained cDNA was inserted into a Xho I/Not I digested pcDNA3.1 vector (InVitrogen, Breda, Netherlands), carrying a hygromycin resistance box. Following transfection to the V79 cells, positive cells were selected based on their hygromycin resistance. The presence of the CYP11B1 gene was confirmed by PCR and the presence of 11β-hydroxylase activity (i.e. the ability to produce corticosterone or cortisol from 11-deoxycorticosterone or 11-deoxycortisol respectively). […] In normal (non transfected) V79 cells, no detectable 11β-hydroxylase activity or PCR signals were found.
as §2, §3, §4

As a reminder, the pIC50 is the negative decadic logarithm of the IC50, by convention in mol/L. Regarding `Cc1cncn1Cc1ccc(C#N)cc1` [Compound 42, 4-[(5-Methyl-1H-imidazol-1-yl)methyl]benzonitrile], in assay [1], the Ratio is 11.4 and the negative-log IC50 (pIC50) is 7.91. Further, the pIC50 in assay [2] is 6.85.

For the compound `COC(=O)CCc1cncn1Cc1ccc(C#N)cc1` [Compound 18, Methyl 3-[1-(4-cyanobenzyl)-1H-imidazol-5-yl]propanoate], in assay [1], the Ratio is 8.9 and the pIC50 was 8.46. Also, the pIC50 in assay [2] was 7.51.

`OCCCc1cncn1Cc1ccc(F)cc1` [Compound 15, 3-[1-(4-Fluorobenzyl)-1H-imidazol-5-yl]propanol]: in assay [1], the Ratio came out at 6.9 and the pIC50 was 7.77. Besides, the pIC50 in assay [2] is 6.94.

With `N#Cc1ccc(Cn2cncc2C=O)cc1` [Compound 44, 4-[(5-Formyl-1H-imidazol-1-yl)methyl]benzonitrile], in assay [1], the Ratio is reported as 7.7 and the negative-log IC50 (pIC50) is 7.21. Besides, the negative logarithm of the IC50 (pIC50) in assay [2] is 6.32.

Regarding `N#Cc1ccc(Cn2cncc2-c2ccccc2)cc1` [Compound 43, 4-[(5-Phenyl-1H-imidazol-1-yl)methyl]benzonitrile], in assay [1], the Ratio was found to be 15.7 and the pIC50 is 8.77. Moreover, the negative-log IC50 (pIC50) in assay [2] was 7.56.

Consider `N#Cc1ccc(Cn2cncc2CO)cc1` [Compound 52, 1-(4-cyanobenzyl)-5-hydroxymethyl-1H-imidazole], for which, in assay [1], the Ratio was determined as 10 and the pIC50 was 7.55. In addition, the pIC50 in assay [2] was 6.54.

As for `N#Cc1ccc(Cn2cncc2-c2cccc(F)c2)cc1` [Compound 58, 4-[(5-(3-Fluorophenyl)-1H-imidazol-1-yl)methyl]benzonitrile], in assay [1], the Ratio came to 5.8 and the pIC50 was 8.26. In addition, the pIC50 in assay [2] is 7.50.

As for `COC(=O)c1cncn1Cc1ccc(C#N)cc1` [Compound 45, Methyl 1-(4-cyanobenzyl)-1H-imidazole-5-carboxylate], the Ratio in assay [1] is 6.7. The figures for the pIC50 in assay [1] and in assay [2] were 8.15 and 7.32, respectively.

For the compound `O=[N+]([O-])c1ccc(Cn2cncc2-c2ccccc2)cc1` [Compound 50, 1-(4-Nitrobenzyl)-5-phenyl-1H-imidazole], in assay [1], the Ratio was 5.9 and the pIC50 was 8.64. Also, the pIC50 in assay [2] is 7.86.

Turning to `Cc1ccccc1-c1cncn1Cc1ccc(C#N)cc1` [Compound 57, 4-[(5-(2-Methylphenyl)-1H-imidazol-1-yl)methyl]benzonitrile], in assay [1], the Ratio was found to be 10.5 and the pIC50 was 9.15. In assay [2], the negative-log IC50 (pIC50) is 8.12.

Turning to `COC(=O)CCc1cncn1Cc1ccc(Br)cc1` [Compound 20, Methyl 3-[1-(4-bromobenzyl)-1H-imidazol-5-yl]propanoate], the Ratio in assay [1] was 14.4. The negative-log IC50 (pIC50) was 8.40 in assay [1] and 7.24 in assay [2].
